{"source": "paper PMC3480357", "about": "“Fragment-Hopping-Based Discovery of a Novel Chemical Series of Proto-Oncogene PIM-1 Kinase Inhibitors” (PLoS ONE, 2012)", "key": {"PIM-2": {"target": "PIM-2 (Homo sapiens, UniProt Q9P1W9)", "sequence (Q9P1W9 whole entry)": "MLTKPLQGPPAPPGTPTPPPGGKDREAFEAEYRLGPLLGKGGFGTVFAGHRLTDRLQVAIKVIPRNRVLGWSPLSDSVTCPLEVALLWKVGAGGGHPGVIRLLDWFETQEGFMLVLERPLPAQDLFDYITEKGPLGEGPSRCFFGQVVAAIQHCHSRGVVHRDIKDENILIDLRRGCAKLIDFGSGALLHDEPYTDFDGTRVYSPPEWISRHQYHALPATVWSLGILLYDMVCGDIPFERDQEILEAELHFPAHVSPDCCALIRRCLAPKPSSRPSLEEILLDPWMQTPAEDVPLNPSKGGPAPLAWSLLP", "test": "PIM-2 kinase ADP Hunter Plus assay", "type": "biochemical", "details": "100 µM ATP"}, "PIM-3": {"target": "PIM-3 (Homo sapiens, UniProt Q86V86)", "test": "PIM-3 kinase ADP Hunter Plus assay", "type": "biochemical", "details": "100 µM ATP, Figure 1", "description": "Kinase activity was measured with the commercial ADP Hunter™ Plus assay (DiscoveRx Ref. #33-016), a homogeneous assay measuring ADP accumulation, as a universal product of kinase activity. The assay was conducted following the manufacturer’s recommendations and adapting the protein and substrate concentrations for optimal conditions. The kinase assay buffer was 15 mM HEPES, pH 7.4, 20 mM NaCl, 1 mM EGTA, 0.02% Tween-20, 10 mM MgCl2 and 0.1 mg/ml BGG (bovine γ-globulin). All PIM kinase assays were performed with 100 µM PIMtide ([…]) as the peptide substrate and 100 µM ATP. The protein concentrations were 50, 350 and 500 ng/µl for PIM-1, 2 and 3, respectively. To calculate the IC50 of the ETP-compounds, serial 1∶5 dilutions were prepared and the reaction was started with the addition of ATP. The reaction was incubated for 1 h at 25°C. Reagents A and B (DiscoveRx) were sequentially added to the wells, and the plates were incubated for 30 min at 37°C. Fluorescence counts were read in a Victor instrument (Perkin Elmer) with the recommended settings (544 and 580 nm as the excitation and emission wavelengths, respectively). Values were plotted against the inhibitor concentrations and fit to a sigmoid dose–response curve using GraphPad software."}}, "data": [{"smiles": "CC(=O)c1cccc(-c2cnc3ccc(NCC4CC4)nn23)c1", "note": "[Compound 2, reference compound]", "values": [{"measurement": "IC50", "setting": "PIM-2", "result": 443, "unit": "nM"}, {"measurement": "IC50", "setting": "PIM-3", "result": 1000, "unit": "nM"}]}]}
